# Values joined by “and” are separate entries in the source; they are usually repeats but may differ in a detail not shown here. Equal values may be shown once. Inconclusive results and toxic doses are left out.
# System: BDF1 mice, B16 melanoma ip, median survival T/C
# Experiment: NCI In Vivo Anticancer Drug Screen. Data for tumor model B16 Melanoma (intraperitoneal) in B6D2F1 (BDF1) mice
# Details: endpoint: median survival time, higher = longer survival
# How it was run: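 Transplantable tumor model; survival or tumor size measured; reported as T/C, treated over vehicle control.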
# [1] = dose: 25.0 mg/kg/injection, schedule: Q01DX009 (ip), vehicle: Klucel (hydroxypropylcellulose) (HPC)
# [2] = dose: 50.0 mg/kg/injection, schedule: Q01DX009 (ip), vehicle: Klucel (hydroxypropylcellulose) (HPC)
compound,measurement,setting,value
COc1cccc2c1C(=O)c1c(O)c3c(c(O)c1C2=O)C[C@@](O)(C(=O)CO)C[C@@H]3OC1CC(N)C(O)C(C)O1 (some centres not stated),T/C,"dose: 0.12 mg/kg/injection, schedule: Q01DX009 (ip), vehicle: saline",163 % of control
same,T/C,"dose: 0.13 mg/kg/injection, schedule: Q01DX009 (ip), vehicle: water",202 % of control
same,T/C,"dose: 0.25 mg/kg/injection, schedule: Q01DX009 (ip), vehicle: water",181 % of control and 202 % of control and 266 % of control
same,T/C,"dose: 0.37 mg/kg/injection, schedule: Q01DX009 (ip), vehicle: saline",412 % of control
same,T/C,"dose: 0.37 mg/kg/injection, schedule: Q03HX008 (ip), vehicle: saline",154 % of control and 270 % of control
same,T/C,"dose: 0.47 mg/kg/injection, schedule: Q01DX001 (ip), vehicle: water",175 % of control
same,T/C,"dose: 0.5 mg/kg/injection, schedule: Q01DX009 (ip), vehicle: water",222 % of control and 260 % of control and 274 % of control
same,T/C,"dose: 0.5 mg/kg/injection, schedule: Q03HX008 (ip), vehicle: saline",194 % of control
same,T/C,"dose: 0.75 mg/kg/injection, schedule: Q01DX001 (ip), vehicle: saline",162 % of control
same,T/C,"dose: 0.75 mg/kg/injection, schedule: Q01DX001 (ip), vehicle: water",154 % of control
same,T/C,"dose: 0.75 mg/kg/injection, schedule: Q01DX009 (ip), vehicle: saline",154 % of control and 412 % of control
same,T/C,"dose: 0.75 mg/kg/injection, schedule: Q03DX001 (ip), vehicle: saline",168 % of control
same,T/C,"dose: 0.75 mg/kg/injection, schedule: Q03HX008 (ip), vehicle: saline",164 % of control and 412 % of control
same,T/C,"dose: 0.75 mg/kg/injection, schedule: Q04DX003 (ip), vehicle: saline",210 % of control
same,T/C,"dose: 0.94 mg/kg/injection, schedule: Q01DX001 (ip), vehicle: water",194 % of control and 197 % of control
same,T/C,"dose: 1.0 mg/kg/injection, schedule: Q01DX009 (ip), vehicle: water",260 % of control and 274 % of control and 339 % of control
same,T/C,"dose: 1.0 mg/kg/injection, schedule: Q03HX008 (ip), vehicle: saline",169 % of control
same,T/C,"dose: 1.25 mg/kg/injection, schedule: Q01DX001 (ip), vehicle: saline",210 % of control
same,T/C,"dose: 1.4 mg/kg/injection, schedule: Q04DX003 (ip), vehicle: saline",102 % of control
same,T/C,"dose: 1.44 mg/kg/injection, schedule: Q04DX003 (ip), vehicle: water",158 % of control and 295 % of control
same,T/C,"dose: 1.5 mg/kg/injection, schedule: Q01DX001 (ip), vehicle: saline",100 % of control and 114 % of control
same,T/C,"dose: 1.5 mg/kg/injection, schedule: Q01DX009 (ip), vehicle: saline",164 % of control and 412 % of control
same,T/C,"dose: 1.5 mg/kg/injection, schedule: Q03DX001 (ip), vehicle: saline",412 % of control
same,T/C,"dose: 1.5 mg/kg/injection, schedule: Q03HX008 (ip), vehicle: saline",206 % of control
same,T/C,"dose: 1.5 mg/kg/injection, schedule: Q04DX003 (ip), vehicle: saline",152 % of control and 412 % of control
same,T/C,"dose: 1.88 mg/kg/injection, schedule: Q01DX001 (ip), vehicle: water",241 % of control and 308 % of control
same,T/C,"dose: 1.9 mg/kg/injection, schedule: Q01DX001 (ip), vehicle: water",165 % of control
same,T/C,"dose: 2.0 mg/kg/injection, schedule: Q01DX009 (ip), vehicle: water",219 % of control and 275 % of control
same,T/C,"dose: 2.0 mg/kg/injection, schedule: Q03HX008 (ip), vehicle: saline",152 % of control
same,T/C,"dose: 2.4 mg/kg/injection, schedule: Q04DX003 (ip), vehicle: saline",105 % of control
same,T/C,"dose: 2.4 mg/kg/injection, schedule: Q04DX003 (ip), vehicle: water",155 % of control and 233 % of control
same,T/C,"dose: 3.0 mg/kg/injection, schedule: Q03DX001 (ip), vehicle: saline",177 % of control
same,T/C,"dose: 3.0 mg/kg/injection, schedule: Q04DX003 (ip), vehicle: saline",162 % of control and 412 % of control
same,T/C,"dose: 3.75 mg/kg/injection, schedule: Q01DX001 (ip), vehicle: water",214 % of control and 308 % of control
same,T/C,"dose: 3.8 mg/kg/injection, schedule: Q01DX001 (ip), vehicle: water",111 % of control
same,T/C,"dose: 4.0 mg/kg/injection, schedule: Q04DX003 (ip), vehicle: water",184 % of control and 202 % of control
same,T/C,"dose: 5.9 mg/kg/injection, schedule: Q04DX003 (ip), vehicle: saline",428 % of control
same,T/C,"dose: 6.0 mg/kg/injection, schedule: Q01DX001 (ip), vehicle: saline",308 % of control
same,T/C,"dose: 6.0 mg/kg/injection, schedule: Q03DX001 (ip), vehicle: saline",264 % of control
same,T/C,"dose: 6.0 mg/kg/injection, schedule: Q04DX003 (ip), vehicle: saline",189 % of control
same,T/C,"dose: 6.67 mg/kg/injection, schedule: Q04DX003 (ip), vehicle: saline",118 % of control
same,T/C,"dose: 6.67 mg/kg/injection, schedule: Q04DX003 (ip), vehicle: water",198 % of control and 321 % of control
same,T/C,"dose: 8.0 mg/kg/injection, schedule: Q04DX003 (ip), vehicle: saline",165 % of control and 180 % of control
same,T/C,"dose: 9.0 mg/kg/injection, schedule: Q04DX003 (ip), vehicle: saline",103 % of control
same,T/C,"dose: 12.0 mg/kg/injection, schedule: Q03DX001 (ip), vehicle: saline",100 % of control
same,T/C,"dose: 13.3 mg/kg/injection, schedule: Q01DX001 (ip), vehicle: saline",150 % of control and 155 % of control
same,T/C,"dose: 32.0 mg/kg/injection, schedule: Q01DX001 (ip), vehicle: saline",40 % of control
same,T/C,"dose: 32.0 mg/kg/injection, schedule: Q01DX001 (ip), vehicle: water",116 % of control
same,T/C,"dose: 64.0 mg/kg/injection, schedule: Q01DX001 (ip), vehicle: saline",25 % of control
same,T/C,"dose: 128.0 mg/kg/injection, schedule: Q01DX001 (ip), vehicle: saline",20 % of control
same,T/C,"dose: 125.0 micrograms/kg/injection, schedule: Q01DX009 (ip), vehicle: other",178 % of control
same,T/C,"dose: 250.0 micrograms/kg/injection, schedule: Q01DX009 (ip), vehicle: other",246 % of control
same,T/C,"dose: 500.0 micrograms/kg/injection, schedule: Q01DX009 (ip), vehicle: other",379 % of control
same,T/C,"dose: 518.0 micrograms/kg/injection, schedule: Q01DX004 (ip), vehicle: other",112 % of control
same,T/C,"dose: 864.0 micrograms/kg/injection, schedule: Q01DX004 (ip), vehicle: other",122 % of control
same,T/C,"dose: 1000.0 micrograms/kg/injection, schedule: Q01DX009 (ip), vehicle: other",380 % of control
same,T/C,"dose: 2000.0 micrograms/kg/injection, schedule: Q01DX009 (ip), vehicle: other",382 % of control
same,T/C,"dose: 4000.0 micrograms/kg/injection, schedule: Q01DX004 (ip), vehicle: other",100 % of control and 112 % of control
COC(=O)C12Oc3ccc(-c4ccc5c(c4O)C(O)=C4C(=O)CC(C)C(O)C4(C(=O)OC)O5)c(O)c3C(O)=C1C(=O)CC(C)C2O (configuration not stated),T/C,"dose: 0.15 mg/kg/injection, schedule: Q01DX009 (ip), vehicle: saline with Tween-80",98 % of control
same,T/C,"dose: 0.31 mg/kg/injection, schedule: Q01DX009 (ip), vehicle: saline with Tween-80",93 % of control
same,T/C,"dose: 0.62 mg/kg/injection, schedule: Q01DX009 (ip), vehicle: saline with Tween-80",104 % of control
same,T/C,"dose: 1.25 mg/kg/injection, schedule: Q01DX009 (ip), vehicle: saline with Tween-80",95 % of control
CC(=O)N1CCC2(CC1)SSC1(CCN(C(C)=O)CC1)S2,T/C,"dose: 5.0 mg/kg/injection, schedule: Q01DX009 (ip), vehicle: saline with Tween-80",105 % of control
same,T/C,"dose: 10.0 mg/kg/injection, schedule: Q01DX009 (ip), vehicle: saline with Tween-80",112 % of control
O=C(C(=O)c1ccc(Br)cc1)c1ccc(Br)cc1,T/C,"dose: 12.5 mg/kg/injection, schedule: Q01DX009 (ip), vehicle: Klucel (hydroxypropylcellulose) (HPC)",108 % of control
same,T/C,[1],107 % of control
same,T/C,[2],91 % of control
CCC/C(C)=N/Nc1ccccn1,T/C,"dose: 12.5 mg/kg/injection, schedule: Q01DX009 (ip), vehicle: saline sonified",97 % of control
same,T/C,"dose: 25.0 mg/kg/injection, schedule: Q01DX009 (ip), vehicle: saline sonified",95 % of control
same,T/C,"dose: 50.0 mg/kg/injection, schedule: Q01DX009 (ip), vehicle: saline sonified",97 % of control
same,T/C,"dose: 100.0 mg/kg/injection, schedule: Q01DX009 (ip), vehicle: saline sonified",100 % of control
C/C=C/C(=O)NCC(C(C)C)/[N+]([O-])=N/O (configuration not stated),T/C,"dose: 6.25 mg/kg/injection, schedule: Q01DX009 (ip), vehicle: saline",100 % of control
same,T/C,"dose: 12.5 mg/kg/injection, schedule: Q01DX009 (ip), vehicle: saline",104 % of control
same,T/C,"dose: 25.0 mg/kg/injection, schedule: Q01DX009 (ip), vehicle: saline",100 % of control
CN(C1=NS(=O)(=O)N=C(N(C)c2ccccc2)O1)c1ccccc1,T/C,[1],101 % of control
same,T/C,[2],108 % of control
same,T/C,"dose: 100.0 mg/kg/injection, schedule: Q01DX009 (ip), vehicle: Klucel (hydroxypropylcellulose) (HPC)",96 % of control
same,T/C,"dose: 200.0 mg/kg/injection, schedule: Q01DX009 (ip), vehicle: Klucel (hydroxypropylcellulose) (HPC)",93 % of control
same,T/C,"dose: 400.0 mg/kg/injection, schedule: Q01DX009 (ip), vehicle: Klucel (hydroxypropylcellulose) (HPC)",87 % of control
N/C(=N\O)c1cn(C2OC(CO)C(O)C2O)c2ncnc(N)c12 (configuration not stated),T/C,"dose: 1.0 mg/kg/injection, schedule: Q01DX009 (ip), vehicle: saline",115 % of control
same,T/C,"dose: 2.0 mg/kg/injection, schedule: Q01DX009 (ip), vehicle: saline",117 % of control
same,T/C,"dose: 4.0 mg/kg/injection, schedule: Q01DX009 (ip), vehicle: saline",121 % of control
